{"source": "patent US20230071637A1", "about": "“ORAL SUSPENSION WITH ANTIULCEROUS AND CHEMOPROTECTIVE EFFECT ON COLON CANCER AND PREPARATION METHOD THEREOF” (CENTRO NACIONAL DE INVESTIGACIONES CIENTIFICAS, priority 2020, published 2023)", "key": {"[1]": {"system": "ethanol-induced gastric ulcer", "experiment": "Ethanol-induced gastric ulcer in rats", "type": "in vivo, Sprague-Dawley rats", "conditions": "20 mg/kg oral single dose", "description": "The composition obtained in example 2 (FAMC) was subjected to a preclinical test with animals, in which its antiulcer effect was compared with the antiulcer effects of the registered fatty alcohol tablet (RAT), and suspensions of Fatty Alcohols (FA) and microcrystalline cellulose (MC), the latter two prepared with doses of FA and MC equal to the doses of both substances in the FAMC suspension. The experimental model used in this trial was the induction of gastric ulcers in rats by ethanol. […] After completing the quarantine, the animals were randomly distributed into 11 experimental groups (10 rats/group): a negative control that only received the vehicle and 10 groups in which the ulcer was induced with 60% ethanol, among these a control positive not treated with any antiulcer agent, 8 groups treated with the substances to be evaluated and a group treated with Omeprazole as a reference substance, as shown in Table 2. […] The use of a negative control group (not subjected to damage with ethanol), as well as a positive control group (subjected to damage and without treatment with any substance) made it possible to verify the functioning of the model and compare the anti-ulcer efficacy of the substances evaluated. […]"}, "[2]": {"system": "gastric ulcer induced by pylorus ligation", "experiment": "Gastric ulcer induced by pylorus ligation in rats", "type": "in vivo, Sprague-Dawley rats", "description": "The composition obtained in example 2 (FAMC) was subjected to a preclinical test with animals, in which its antiulcer effect was compared with the antiulcer effects of the registered fatty alcohol tablet (RAT), and suspensions of Fatty Alcohols (FA) and microcrystalline cellulose (MC), the latter two prepared with doses of FA and MC equal to the doses of both substances in the FAMC suspension. The experimental model used in this test was that of the induction of gastric ulcers in rats by ligation of the pylorus, which is an acid-dependent model, unlike the model presented in the previous example. […] After completing the quarantine, the animals were randomly distributed into 11 experimental groups (10 rats/group): a negative control that only received the vehicle and 10 groups in which the ulcer was induced by ligation of the pylorus, among these a positive control not treated with any antiulcer agent, 8 groups treated with the substances to be evaluated and a group treated with Omeprazole as a reference substance, as shown in Table 3. The suspensions were administered as they are, while a suspension with 1% acacia gum was prepared to administer the tablet. The use of a negative control group (not subjected to pylorus ligation), as well as that of a positive control (subjected to damage and without treatment with any substance) made it possible to verify the functioning of the model and compare the anti-ulcer efficacy of the substances evaluated. All treatments were administered orally, as a single dose, by intragastric intubation. The selected doses are within the range of effective doses verified in previous preliminary experiences and the dose of omeprazole (20 mg/kg) has also been effective in this model. To induce gastric ulcer, the animals were fasted for 24 hours prior to the experiment, with free access to water. One hour after the administration of single doses of the vehicle, and the different treatments, the animals were anesthetized by intraperitoneal injection with sodium thiopental (35 mg/kg), a 2 cm-long incision was made in the anterior third of the line abdominal media, locating the stomach and ligating the pyloric sphincter with silk suture number 2 and the abdominal wall was sutured with silk thread. One hour later, the rats were sacrificed in a halothane atmosphere, the stomachs were removed and the gastric juice collected in test tubes. The latter was centrifuged at 3000 rpm, the supernatant separated and quantified in ml."}}, "note": "Marks after values point to notes of the source that are not given here.", "data": [{"smiles": "COc1ccc2[nH]c([S+]([O-])Cc3ncc(C)c(OC)c3C)nc2c1", "note": "(stereo not drawn) [OMP, Omeprazole]", "values": [{"measurement": "Ulcer Index", "setting": "[1]; 1 h before 60% ethanol, mean ± SEM", "value": "35.97 ± 14.48*** mm^2"}, {"measurement": "I (%) inhibition of ulcer index", "setting": "[1]; vs positive control", "value": 78.8, "unit": "%"}, {"measurement": "Ulcer Index", "setting": "[2]; 20 mg/kg oral single dose, 1 h before pylorus ligation, mean ± SEM", "value": "3,9 ± 0,5 *** mm^2"}, {"measurement": "Gastric juice volume", "setting": "[2]; 20 mg/kg oral single dose, supernatant of gastric juice 1 h after ligation, mean ± SEM", "value": "3,4 ± 0,4 ml"}, {"measurement": "I (%) inhibition of ulcer index", "setting": "[2]; 20 mg/kg oral single dose, vs positive control", "value": "83,2%"}, {"measurement": "volume of gastric juice (effect in words)", "setting": "[2]; pylorus ligation, doses tested, vs positive control", "value": "reduced"}]}]}
